What was measured:
OG2 MEFs = assay: iPSC derivation from 4F (OSKM)-transduced OG2 MEFs in iSF1 media (Oct4-GFP colonies); format: cell-based, mouse
Description: Recently, a serum-free media (iSF1) was developed to facilitate the generation of mouse iPSCs (39). The effect of compound OAC1 in the 4F-induced reprogramming was tested in iSF1 media. OG2 MEFs, derived from transgenic mice expressing the Oct4 promoter-driven GFP reporter (Oct4-GFP) (40), were transduced with retroviruses expressing the 4F reprogramming factors, Oct4, Sox2, Klf4, and c-Myc. The 4F-transduced cells were transferred to iSF1 media two days after viral transduction and this day was designated as day 0 (FIG. 3A). Treatment of compound OAC1 started on day 1 and lasted for 7 days. […] At day 5, a more than 3-fold increase in the number of GFP-positive colonies was detected in OAC1-treated, 4F-transduced cells (4F+OAC1), compared to vehicle-treated, 4F-transduced cells (FIG. 3B, C). […] The number of GFP-positive colonies in 4F-treated cells at day 8 (average of 200) was less than the number of GFP-positive colonies in 4F+OAC1-treated cells at day 5 (average of 350) (FIG. 3B, C).
iPSC Derivation in iSF1 Media: OG2 MEFs were seeded onto 6-well plates at the density of 3×10^4 cells per well in DMEM medium with 10% FBS, 0.1 mM NEAA, and 0.1 mM L-glutamine, 24 hr before transduction. Freshly prepared viruses of the 4F, Oct4, Sox2, c-Myc, and Klf4, were added to the cells. Two days after viral infection, the transduced OG2 MEFs were split into new 6-well plates with irradiated MEF feeders and cultured in iSF1 reprogramming media containing high glucose DMEM, 10% knockout serum, 0.5% N2, 5 ng/ml b-FGF, 2 mM L-glutamine, 0.1 mM 2-mercaptoethanol, 0.1 mM NEAA and 1000 U/ml of LIF. This day was defined as day 0. On day 1, 1 μM of each compound (OAC1, OAC2, and OAC3) was added to the 4F-transduced OG2 MEFs. Treatment was continued for 1 week. When iPSC colonies emerged, these colonies were picked for expansion on the irradiated MEF feeders in mouse ESC medium.

p53 = assay: RT-PCR of p53 expression in treated MEFs; format: cell-based, mouse; conditions: MEFs treated for two days
Description: (§1) Inhibition of the p53-p21 signaling increased reprogramming efficiency (26, 28-31, 41). To investigate whether compound OAC1 enhanced reprogramming efficiency by affecting this pathway, MEFs were treated with vehicle control or OAC1 and determined the expression level of p53 and p21 in the treated cells.
(§2) RT-PCR analysis: Total RNA was purified with Trizol reagent (Invitrogen). Reverse transcription was performed with 1 μg of RNA using Omniscript® Reverse Transcription Kit (Qiagen). Quantitative PCR was performed using iTaq SYBR Green Supermix with Rox (Bio-rad) in Applied Biosystem Step one plus real-time PCR system. […]

p21 = assay: RT-PCR of p21 expression in treated MEFs; format: cell-based, mouse; conditions: MEFs treated for two days
Description: as §1, §2

luciferase [1] = biological target: T1, luciferase (Photinus pyralis, UniProt P08659); assay: inhibition of luciferase activity at 1 μM (applicant's observation)
Text: OAC1 and related analogs belong to a structural class of 5-substituted pyrrolo[2,3-b]pyridine- and indole-based benzamides. Very little is reported about their biological activities. […] However, in a different assay called ATLAS (any target ligand affinity screen), no inhibition was detected (49).

luciferase [2] = biological target: T1, luciferase; conditions: cited from earlier work

T1 sequence (P08659 whole entry): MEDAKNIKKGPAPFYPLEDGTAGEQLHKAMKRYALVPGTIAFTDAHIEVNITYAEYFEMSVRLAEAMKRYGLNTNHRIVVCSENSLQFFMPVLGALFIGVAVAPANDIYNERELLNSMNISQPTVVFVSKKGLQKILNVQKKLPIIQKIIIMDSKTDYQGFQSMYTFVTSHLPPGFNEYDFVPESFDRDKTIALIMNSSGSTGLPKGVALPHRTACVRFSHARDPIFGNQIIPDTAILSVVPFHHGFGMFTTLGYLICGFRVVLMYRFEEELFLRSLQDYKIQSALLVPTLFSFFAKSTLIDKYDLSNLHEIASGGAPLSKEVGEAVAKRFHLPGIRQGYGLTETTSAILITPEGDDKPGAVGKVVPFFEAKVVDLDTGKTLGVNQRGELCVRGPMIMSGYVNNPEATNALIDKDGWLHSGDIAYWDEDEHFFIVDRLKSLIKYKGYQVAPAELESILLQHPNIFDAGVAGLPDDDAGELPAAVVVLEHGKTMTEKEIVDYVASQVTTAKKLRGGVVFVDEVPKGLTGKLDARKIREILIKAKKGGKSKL

SMILES: O=C(Nc1cc2cc[nH]c2cn1)c1ccccc1 [OAC1, N-(1H-6-azaindol-5-yl)benzamide]
- Colony numbers (OG2 MEFs; MEFs in iSF1 media, OSKM, seeding 3 × 10^4, day 8, 1 μM compound): 800
- Reprogramming efficiency (OG2 MEFs; MEFs in iSF1 media, OSKM, seeding 3 × 10^4, day 8, colony numbers divided by seeding cell numbers): 2.75%
- day at which GFP+ colonies started to appear (OG2 MEFs; iSF1 media, 4F+compound, days after transfer to iSF1 media): 3 days
- increase in the number of GFP-positive colonies compared to vehicle-treated 4F-transduced cells (OG2 MEFs; iSF1 media, day 5): more than 3 fold
- number of GFP-positive colonies (average) (OG2 MEFs; iSF1 media, day 5): 350
- reprogramming efficiency of 4F+compound relative to 4F alone in the initial Yamanaka study (OG2 MEFs; not a direct comparison): more than 20 fold
- p53 expression level versus DMSO (p53): no significant difference
- p21 expression level versus DMSO (p21): no significant difference
- inhibition of luciferase activity (luciferase [1]): no inhibition
- inhibition in ATLAS assay (luciferase [2]): no inhibition

— US8962322B2, “Enhancers of induced pluripotent stem cell reprogramming” (City of Hope, priority 2012, dated 2015)
